Consider 9 compounds from publication doi:10.1101/2024.04.09.588698v1 (biorxiv, 2024).

Assay [1] has as its target T1, Htc10-LBD (Vreelandella titanicae, UniProt L9UCI1).
T1 sequence (L9UCI1 48-325): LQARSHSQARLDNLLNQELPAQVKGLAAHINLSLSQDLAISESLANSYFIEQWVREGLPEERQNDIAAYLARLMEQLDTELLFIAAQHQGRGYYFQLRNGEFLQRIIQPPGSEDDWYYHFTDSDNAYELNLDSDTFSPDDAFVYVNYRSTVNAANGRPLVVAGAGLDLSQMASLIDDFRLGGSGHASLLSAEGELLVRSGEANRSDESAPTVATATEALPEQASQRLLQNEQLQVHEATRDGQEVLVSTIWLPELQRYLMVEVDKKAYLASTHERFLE
To be noted: Biolog plate screen, est. 3-6 mM; binder.

Assay [2] addresses T1, Htc10-LBD. The assay can be described thus: biochemical. To be noted: read-out: ΔTm (ºC) 10 mM solution.
Assay [3] concerns the target T2, Htc10-LBD (Vreelandella titanicae, UniProt L9UCI1, Y141F).
T2 sequence (L9UCI1 48-325 Y141F): T1 sequence (L9UCI1 48-325) with Y94F
The assay can be described thus: isothermal titration calorimetry. It counts as binding.

In assay [4] the target is T1, Htc10-LBD. The assay is described as follows: isothermal titration calorimetry. Type of assay: binding.
For assay [5], the target named is T3, Htc10-LBD (Vreelandella titanicae, UniProt L9UCI1, D179A/N177A/Y141F).
T3 sequence (L9UCI1 48-325 Y141F/N177A/D179A): T1 sequence (L9UCI1 48-325) with Y94F, N130A, D132A
The assay is described as follows: isothermal titration calorimetry. It counts as binding.

For assay [6], the target named is T1, Htc10-LBD. The assay can be described thus: biochemical.

Substitutions are numbered along the chain they refer to.

`O=c1[nH]cnc2c1ncn2[C@H]1C[C@H](O)[C@@H](CO)O1` [2-deoxy-inosine]: in assay [1], the “ΔTm (ºC) Biolog plates” value is 6.5 degC.

As to `Nc1nc2c(ncn2[C@@H]2O[C@H](CO)[C@@H](O)[C@H]2O)c(=O)[nH]1` [Guanosine], the thermal shift (ΔTm) at 10000 µM in assay [2] was determined as 0.5 °C. In assay [1], the “ΔTm (ºC) Biolog plates” value was 2.5 degC.

As to `O=c1[nH]cnc2c1ncn2[C@@H]1O[C@H](CO)[C@@H](O)[C@H]1O` [Inosine], the thermal shift (ΔTm) at 10000 µM in assay [2] amounted to 3 °C.

With `Cc1cn([C@H]2C[C@H](O)[C@@H](CO)O2)c(=O)[nH]c1=O` [Thymidine], in assay [2], the shift in melting temperature (ΔTm) at 10000 µM was 0 °C. Also, the “ΔTm (ºC) Biolog plates” value in assay [1] was determined as 2.0 degC.

As to `Cc1c[nH]c(=O)[nH]c1=O` [Thymine], the ΔTm at 10000 µM in assay [2] worked out at 1.7 °C. Further, the “ΔTm (ºC) Biolog plates” value in assay [1] is on record as 2.0 degC.

With `O=c1cc[nH]c(=O)[nH]1` [Uracil], the ΔTm at 10000 µM in assay [2] was determined as 3 °C.

On to `O=c1[nH]c(=O)c2nc[nH]c2[nH]1` [Xanthine], for which the ΔTm at 10000 µM in assay [2] was -8 °C. Further, the “ΔTm (ºC) Biolog plates” value in assay [1] stood at 2.5 degC.

Turning to `Nc1nc2nc[nH]c2c(=O)[nH]1` [guanine], the dissociation constant Kd is 25 ± 2 µM in assay [3], 7 ± 0.6 µM in assay [4] and 118 ± 9 µM in assay [5]. In addition, the ΔTm at 10000 µM in assay [2] amounted to 6 °C. The ΔTm at 600 µM in assay [6] (read-out: ΔTm (ºC) gua) was found to be 5.2 °C.

`O=c1[nH]cnc2nc[nH]c12` [hypoxanthine]: the Kd in assay [3] stood at 13.9 ± 0.9 µM; in assay [4], 2.5 ± 0.3 µM; in assay [5] it was 140 ± 9 µM. Moreover, in assay [2], the shift in melting temperature (ΔTm) at 10000 µM was determined as 16 °C. Besides, the ΔTm at 500 µM in assay [6] (read-out: ΔTm (ºC) hyp) was determined as 10.6 °C. Moreover, in assay [1], the “ΔTm (ºC) Biolog plates” value was found to be 8.0 degC.
